Active and inactive are the calls of the source. No cut-off for these calls is given here.
Experiments:
[1] = target: T1, Human immunodeficiency virus type 1 reverse transcriptase (Human immunodeficiency virus 1, UniProt Q72547); experiment: Inhibition of HIV-1 RNase H using 5'-GAUCUGAGCCUGGGAGCU-3'-FAM RNA/BHQ-5'-AGCTCCCAGGCTCAGATC-3' DNA as substrate measured after 60 mins by FRET analysis
[2] = target: Human immunodeficiency virus type 1 reverse transcriptase (Human immunodeficiency virus 1) (UniProt Q72547); experiment: Inhibition of HIV-1 RNase H using 5'-GAUCUGAGCCUGGGAGCU-3'-FAM RNA/BHQ-5'-AGCTCCCAGGCTCAGATC-3' DNA as substrate at 50 uM measured after 60 mins by FRET analysis
[3] = Cytotoxicity activity against human R5-MaRBLE reporter cells assessed as effect on Renilla luciferase activity measured after 7 days by Dual-Glo luciferase reporter assay; format: toxicity, cell-based; details: time 7 day
[4] = tested on: Human immunodeficiency virus 1; experiment: Antiviral activity against HIV-1 NL4-3 infected in human R5-MaRBLE reporter cells assessed as inhibition of viral replication measured after 7 days by Dual-Glo luciferase reporter assay; format: functional, organism-based
[5] = target: DNA (cytosine-5)-methyltransferase 1 (Homo sapiens, UniProt P26358); experiment: Competitive inhibition of DNMT1 (unknown origin)
Chain of DNA (cytosine-5)-methyltransferase 1 (P26358 whole entry): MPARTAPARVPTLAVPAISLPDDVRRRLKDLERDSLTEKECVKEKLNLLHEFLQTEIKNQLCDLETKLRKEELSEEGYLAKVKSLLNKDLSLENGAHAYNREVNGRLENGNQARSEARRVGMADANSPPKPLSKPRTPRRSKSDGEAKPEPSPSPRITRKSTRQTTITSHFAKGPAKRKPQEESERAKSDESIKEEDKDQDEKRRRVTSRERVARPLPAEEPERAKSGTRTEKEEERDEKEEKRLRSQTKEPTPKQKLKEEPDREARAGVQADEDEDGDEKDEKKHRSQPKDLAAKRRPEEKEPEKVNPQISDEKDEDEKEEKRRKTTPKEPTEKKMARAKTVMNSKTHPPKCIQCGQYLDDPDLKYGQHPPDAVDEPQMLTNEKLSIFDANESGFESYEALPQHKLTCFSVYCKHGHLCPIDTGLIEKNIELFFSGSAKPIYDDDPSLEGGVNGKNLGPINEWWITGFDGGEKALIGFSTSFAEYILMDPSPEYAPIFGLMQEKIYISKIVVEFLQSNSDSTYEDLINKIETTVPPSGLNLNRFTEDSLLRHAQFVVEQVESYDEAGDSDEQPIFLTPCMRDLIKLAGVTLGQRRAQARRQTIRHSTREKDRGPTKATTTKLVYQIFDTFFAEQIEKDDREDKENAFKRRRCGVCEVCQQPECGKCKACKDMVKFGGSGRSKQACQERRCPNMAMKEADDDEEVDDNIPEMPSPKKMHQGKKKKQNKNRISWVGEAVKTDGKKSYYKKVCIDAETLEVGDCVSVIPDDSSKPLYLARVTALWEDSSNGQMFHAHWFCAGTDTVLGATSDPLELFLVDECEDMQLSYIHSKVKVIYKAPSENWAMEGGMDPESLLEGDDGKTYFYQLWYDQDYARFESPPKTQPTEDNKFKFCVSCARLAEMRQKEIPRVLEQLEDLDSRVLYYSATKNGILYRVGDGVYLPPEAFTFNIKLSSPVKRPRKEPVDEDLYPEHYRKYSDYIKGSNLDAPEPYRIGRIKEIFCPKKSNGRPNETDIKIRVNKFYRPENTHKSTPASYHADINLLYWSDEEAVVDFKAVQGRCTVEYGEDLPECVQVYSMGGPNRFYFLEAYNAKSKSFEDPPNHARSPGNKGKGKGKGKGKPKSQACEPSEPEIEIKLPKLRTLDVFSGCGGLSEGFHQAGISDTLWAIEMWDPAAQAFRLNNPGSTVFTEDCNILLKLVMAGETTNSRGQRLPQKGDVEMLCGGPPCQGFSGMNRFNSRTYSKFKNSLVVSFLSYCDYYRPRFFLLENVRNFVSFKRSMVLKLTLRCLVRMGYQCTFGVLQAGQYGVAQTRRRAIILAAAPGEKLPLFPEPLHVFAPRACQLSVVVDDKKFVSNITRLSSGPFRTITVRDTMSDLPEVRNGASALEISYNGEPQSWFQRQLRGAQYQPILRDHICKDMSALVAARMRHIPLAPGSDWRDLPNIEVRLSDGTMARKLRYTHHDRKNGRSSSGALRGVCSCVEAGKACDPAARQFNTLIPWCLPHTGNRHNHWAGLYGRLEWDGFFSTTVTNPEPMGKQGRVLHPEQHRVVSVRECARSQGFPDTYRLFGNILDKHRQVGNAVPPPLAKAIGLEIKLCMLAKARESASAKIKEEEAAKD

[6] = target: T1, Human immunodeficiency virus type 1 reverse transcriptase; experiment: Inhibition of HIV-1 RNase H activity

NCCc1ccc(O)c(-c2c(O)c(O)c3c(c2O)C(=O)c2c(cc(O)c(C(=O)O)c2C(=O)O)C3=O)c1
IC50 [1]: 44 µM | inhibition [2]: Active

CC(=O)NCCc1ccc(O)c(-c2c(O)c(O)c3c(c2O)C(=O)c2c(cc(O)c(C(=O)O)c2C(=O)O)C3=O)c1 [LACCACID ACID A]
IC50 [1]: 64 µM | inhibition [2]: Active | CC50 at 168 h [3]: 39.5 µM | EC50 ([4]; r5-marble): Not Active | Ki [5]: 0.3 µM

O=C(O)c1cc(O)c2c(c1)[C@@H]([C@@H]1c3cc(C(=O)O)cc(O)c3C(=O)c3c(O[C@@H]4O[C@H](CO)[C@@H](O)[C@H](O)[C@H]4O)cccc31)c1cccc(O[C@H]3O[C@@H](CO)[C@H](O)[C@@H](O)[C@@H]3O)c1C2=O
IC50 [6]: 2 µM

O=C(O)c1cc(O)c2c(c1)[C@@H]([C@H]1c3cc(C(=O)O)cc(O)c3C(=O)c3c(O[C@H]4O[C@@H](CO)[C@H](O)[C@@H](O)[C@@H]4O)cccc31)c1cccc(O[C@@H]3O[C@H](CO)[C@@H](O)[C@H](O)[C@H]3O)c1C2=O
IC50 [6]: 2 µM

N[C@@H](Cc1ccc(O)c(-c2c(O)c(O)c3c(c2O)C(=O)c2c(cc(O)c(C(=O)O)c2C(=O)O)C3=O)c1)C(=O)O
IC50 [1]: 8.1 µM | inhibition [2]: Active | CC50 at 168 h [3]: 43.9 µM | EC50 ([4]; Human immunodeficiency virus 1, NL4-3, R5-MaRBLE, 168 h, read-out: EC50): 19.2 µM

Source: ChEMBL document CHEMBL5390256, “Sticklac-Derived Natural Compounds Inhibiting RNase H Activity of HIV-1 Reverse Transcriptase” (J Nat Prod, 2023)
